This note sets out measurements from US20220282217A1, “COMPOSITIONS AND METHODS FOR PREPARING T CELL COMPOSITIONS AND USES THEREOF” (priority 2019, published 2022).

Assay [1] addresses HLA-A02.01 (Homo sapiens, UniProt P04439, D140Y/D185E/D98H/E176V/E277Q/G131W/G231S/I119V/I121R/I166T/I218V/L300P/L318F/N151K/N90K/P208A/P217A/Q86G/Q94H/R138H/R169H/T345S). Nature of the assay: Class I MHC peptide binding affinity (displacement of radiolabeled reference peptide). Conditions: for IC50: allele A02.01, read-out: Observed Affinity (IC50, (nM)). The essentials: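 MHC class I complexes were loaded with a radiolabeled reference peptide, then exposed to test peptides over a range of concentrations for 2 days. Reference peptide still bound to the complexes was quantified by size-exclusion gel filtration.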

Assay [2] concerns the target T1, HLA-A02.01 (Homo sapiens, UniProt P04439, D140Y/D185E/D98H/E176V/E277Q/G131W/G231S/I119V/I121R/I166T/I218V/N151K/N90K/P208A/P217A/Q86G/Q94H/R138H/R169H).
T1 construct: made in house; host or cells: E. coli
Nature of the assay: Class I MHC peptide binding stability (pMHC-I dissociation, 125I-labeled light chain). Particulars: for Stability (T1/2 (h)): allele A02.01.

SMILES strings stand for the structures. pKd: −log10 of the molar value. Where a SMILES comes first, the peptide text is derived from it.

As a reminder, the IC50 is the concentration at which inhibition is half-maximal. As to `CSCC[C@H](NC(=O)[C@H](CCC(=O)O)NC(=O)[C@H](CC(C)C)NC(=O)[C@H](CC(C)C)NC(=O)[C@H](CC(C)C)NC(=O)CN)C(=O)N[C@@H](CC(C)C)C(=O)N[C@@H](CC(=O)O)C(=O)N[C@@H](C)C(=O)O` (H-GLLLEMLDA-OH; N-terminus and C-terminus assumed), in assay [1], the concentration for half-maximal inhibition (IC50) came out at 558 nM. For the same compound, the “Stability (T1/2 (h))” value in assay [2] amounted to 0.4 h.

For `CC[C@H](C)[C@H](NC(=O)[C@H](Cc1ccc(O)cc1)NC(=O)[C@@H]1CCCN1C(=O)[C@H](CO)NC(=O)[C@H](CC(N)=O)NC(=O)[C@H](CO)NC(=O)[C@H](CCC(=O)O)NC(=O)[C@H](Cc1c[nH]cn1)NC(=O)[C@H](CC(C)C)NC(=O)[C@@H](N)C(C)C)C(=O)O` (H-VLHESNSPYI-OH; N-terminus and C-terminus assumed), the IC50 in assay [1] worked out at 131 nM. Also, in assay [2], the “Stability (T1/2 (h))” value turned out to be 1.9 h.

For the compound `CC(C)C[C@H](NC(=O)[C@H](CC(C)C)NC(=O)[C@@H](NC(=O)[C@H](CC(=O)O)NC(=O)[C@H](C)NC(=O)[C@H](CC(C)C)NC(=O)[C@@H](N)CS)C(C)C)C(=O)N[C@@H](CO)C(=O)N[C@H](C(=O)O)C(C)C` (H-CLADVLLSV-OH; N-terminus and C-terminus assumed), the half-inhibitory concentration (IC50) in assay [1] stood at 219 nM. Moreover, the “Stability (T1/2 (h))” value in assay [2] is 24 h.

Consider `CC[C@H](C)[C@H](N)C(=O)N[C@@H](CCSC)C(=O)N[C@@H](CCC(N)=O)C(=O)N[C@@H](CC(C)C)C(=O)N[C@@H](CCSC)C(=O)N1CCC[C@H]1C(=O)N[C@@H](Cc1ccccc1)C(=O)NCC(=O)N[C@@H](CS)C(=O)O` (H-IMQLMPFGC-OH; N-terminus and C-terminus assumed), for which the pKd in assay [1] (EGFR T790M peptides, HLA allele A02.01, read-out: Affinity) was 5.92. In assay [1], the IC50 amounted to 1610 nM. Besides, the “Stability (half-life (hr.))” value in assay [2] (EGFR T790M peptides, HLA allele A02.01) amounted to 22.21 min. In assay [2], the “Stability (T1/2 (h))” value came out at 0.4 h.

As for `CC[C@H](C)[C@H](NC(=O)[C@H](Cc1ccccc1)NC(=O)[C@H](CS)NC(=O)[C@H](CO)NC(=O)[C@H](CC(N)=O)NC(=O)[C@H](CO)NC(=O)[C@H](C)NC(=O)[C@H](CO)NC(=O)[C@H](CC(C)C)NC(=O)[C@H](C)N)C(=O)O` (H-ALSASNSCFI-OH; N-terminus and C-terminus assumed), in assay [1], the IC50 came to 226 nM. In addition, in assay [2], the “Stability (T1/2 (h))” value is 0.8 h.

With `CC[C@H](C)[C@H](NC(=O)[C@@H](NC(=O)[C@H](CC(C)C)NC(=O)[C@@H](NC(=O)[C@@H]1CCCN1C(=O)[C@H](CCCNC(=N)N)NC(=O)[C@H](CCC(N)=O)NC(=O)[C@H](CC(N)=O)NC(=O)[C@H](CCSC)NC(=O)CN)[C@@H](C)CC)[C@@H](C)O)C(=O)O`, the 50% inhibitory concentration (IC50) in assay [1] was found to be 709 nM. In addition, in assay [2], the “Stability (T1/2 (h))” value worked out at 0.4 h.

Turning to `CSCC[C@H](NC(=O)[C@H](CCC(=O)O)NC(=O)[C@H](CC(C)C)NC(=O)[C@H](CC(C)C)NC(=O)[C@H](CC(C)C)NC(=O)CNC(=O)[C@H](Cc1ccc(O)cc1)NC(=O)[C@H](CC(C)C)NC(=O)[C@@H]1CCCN1)C(=O)O` (H-PLYGLLLEM-OH; N-terminus and C-terminus assumed), the IC50 in assay [1] was found to be 640 nM. The “Stability (T1/2 (h))” value in assay [2] is given as 0.7 h.

For `CC(C)C[C@H](NC(=O)[C@H](CO)NC(=O)[C@H](CC(N)=O)NC(=O)[C@H](CS)NC(=O)[C@H](CCC(=O)O)NC(=O)[C@H](Cc1c[nH]cn1)NC(=O)[C@H](CC(C)C)NC(=O)[C@@H](NC(=O)[C@@H](N)CCC(N)=O)C(C)C)C(=O)O`, in assay [1], the IC50 is 7770 nM. Further, the “Stability (T1/2 (h))” value in assay [2] was 0.5 h.

Turning to `CSCC[C@H](NC(=O)[C@H](CCC(=O)O)NC(=O)[C@H](CC(C)C)NC(=O)[C@H](CC(C)C)NC(=O)[C@H](CC(C)C)NC(=O)[C@H](CC(=O)O)NC(=O)[C@H](CS)NC(=O)[C@H](CC(C)C)NC(=O)[C@@H]1CCCN1)C(=O)N[C@@H](CC(C)C)C(=O)O` (H-PLCDLLLEML-OH; N-terminus and C-terminus assumed), in assay [1], the IC50 was 2010 nM. In addition, the “Stability (T1/2 (h))” value in assay [2] is given as 0.9 h.
